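Results reflect a 48-hour exposure of cells in 96-well plates to compound at five concentrations. TGI marks complete inhibition of growth.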
Assays:
Test in all cases: growth of human tumour cells (NCI), 48 h
786-0 renal = test system: 786-0 renal
A498 renal = test system: A498 renal
A549 NSCLC = test system: A549 NSCLC
ACHN renal = test system: ACHN renal
CAKI-1 renal = test system: CAKI-1 renal
CCRF-CEM leukemia = test system: CCRF-CEM leukemia
COLO 205 colon = test system: COLO 205 colon
DLD-1 colon = test system: DLD-1 colon
DMS 114 small cell lung = test system: DMS 114 small cell lung
DMS 273 small cell lung = test system: DMS 273 small cell lung
EKVX NSCLC = test system: EKVX NSCLC
HCC-2998 colon = test system: HCC-2998 colon
HCT-116 colon = test system: HCT-116 colon
HCT-15 colon = test system: HCT-15 colon
HL-60(TB) leukemia = test system: HL-60(TB) leukemia
HOP-18 NSCLC = test system: HOP-18 NSCLC
HOP-62 NSCLC = test system: HOP-62 NSCLC
HOP-92 NSCLC = test system: HOP-92 NSCLC
HT29 colon = test system: HT29 colon
IGROV1 ovarian = test system: IGROV1 ovarian
K-562 leukemia = test system: K-562 leukemia
KM12 colon = test system: KM12 colon
KM20L2 colon = test system: KM20L2 colon
LOX IMVI melanoma = test system: LOX IMVI melanoma
LXFL 529 NSCLC = test system: LXFL 529 NSCLC
M14 melanoma = test system: M14 melanoma
M19-MEL melanoma = test system: M19-MEL melanoma
MALME-3M melanoma = test system: MALME-3M melanoma
MOLT-4 leukemia = test system: MOLT-4 leukemia
NCI-H226 lung = test system: NCI-H226 lung
NCI-H23 lung = test system: NCI-H23 lung
NCI-H460 lung = test system: NCI-H460 lung
NCI-H522 lung = test system: NCI-H522 lung
OVCAR-3 ovarian = test system: OVCAR-3 ovarian
OVCAR-4 ovarian = test system: OVCAR-4 ovarian
OVCAR-5 ovarian = test system: OVCAR-5 ovarian
OVCAR-8 ovarian = test system: OVCAR-8 ovarian
RPMI-8226 leukemia = test system: RPMI-8226 leukemia
RXF 393 renal = test system: RXF 393 renal
RXF-631 renal = test system: RXF-631 renal
SF-268 CNS = test system: SF-268 CNS
SF-295 CNS = test system: SF-295 CNS
SF-539 CNS = test system: SF-539 CNS
SK-MEL-2 melanoma = test system: SK-MEL-2 melanoma
SK-MEL-28 melanoma = test system: SK-MEL-28 melanoma
SK-MEL-5 melanoma = test system: SK-MEL-5 melanoma
SK-OV-3 ovarian = test system: SK-OV-3 ovarian
SN12C renal = test system: SN12C renal
SNB-19 CNS = test system: SNB-19 CNS
SNB-75 CNS = test system: SNB-75 CNS
SNB-78 CNS = test system: SNB-78 CNS
SR leukemia = test system: SR leukemia
SW-620 colon = test system: SW-620 colon
TK-10 renal = test system: TK-10 renal
U251 CNS = test system: U251 CNS
UACC-257 melanoma = test system: UACC-257 melanoma
UACC-62 melanoma = test system: UACC-62 melanoma
UO-31 renal = test system: UO-31 renal

For COc1ccc(NC(=O)C(=O)NO)c(OC)c1, which TGI (786-0 renal) is on record?
Its TGI is 29.6 µM.

What about the TGI (A498 renal) of the same compound?
The TGI was 39 µM.

And the TGI (A549 NSCLC)?
The TGI was 35.4 µM.

And the TGI (ACHN renal)?
Its TGI is 29.3 µM.

And the TGI (CAKI-1 renal)?
The TGI was 27.3 µM.

And the TGI (CCRF-CEM leukemia)?
Its TGI is 98 µM.

What about the TGI (COLO 205 colon) of the same compound?
Its TGI is 37.7 µM.

And the TGI (DLD-1 colon)?
Its TGI is 41 µM.

And the TGI (DMS 114 small cell lung)?
Its TGI is 29 µM.

And the TGI (DMS 273 small cell lung)?
Its TGI is 35.3 µM.

And the TGI (EKVX NSCLC)?
The TGI was 28.7 µM.

What about the TGI (HCC-2998 colon) of the same compound?
Its TGI is 35.8 µM.

What about the TGI (HCT-116 colon) of the same compound?
The TGI was 32.4 µM.

What about the TGI (HCT-15 colon) of the same compound?
The TGI was 31.2 µM.

What about the TGI (HL-60(TB) leukemia) of the same compound?
Its TGI is 43 µM.

What about the TGI (HOP-18 NSCLC) of the same compound?
Its TGI is 31.1 µM.

And the TGI (HOP-62 NSCLC)?
The TGI was 35.1 µM.

And the TGI (HOP-92 NSCLC)?
Its TGI is 35.7 µM.

What about the TGI (HT29 colon) of the same compound?
The TGI was 38.1 µM.

And the TGI (IGROV1 ovarian)?
The TGI was 32 µM.

And the TGI (K-562 leukemia)?
The TGI was 56.4 µM.

And the TGI (KM12 colon)?
Its TGI is 34.2 µM.

And the TGI (KM20L2 colon)?
The TGI was 33.3 µM.

And the TGI (LOX IMVI melanoma)?
The TGI was 27.2 µM.

What about the TGI (LXFL 529 NSCLC) of the same compound?
The TGI was 30.3 µM.

And the TGI (M14 melanoma)?
The TGI was 29.9 µM.

And the TGI (M19-MEL melanoma)?
The TGI was 38.9 µM.

What about the TGI (MALME-3M melanoma) of the same compound?
The TGI was 54.6 µM.

And the TGI (MOLT-4 leukemia)?
The TGI was 35.2 µM.

What about the TGI (NCI-H226 lung) of the same compound?
The TGI was 41.6 µM.

What about the TGI (NCI-H23 lung) of the same compound?
The TGI was 34.1 µM.

And the TGI (NCI-H460 lung)?
Its TGI is 33.4 µM.

And the TGI (NCI-H522 lung)?
The TGI was 19 µM.

And the TGI (OVCAR-3 ovarian)?
Its TGI is 30.3 µM.

And the TGI (OVCAR-4 ovarian)?
Its TGI is 37.7 µM.

What about the TGI (OVCAR-5 ovarian) of the same compound?
The TGI was 33.6 µM.

And the TGI (OVCAR-8 ovarian)?
Its TGI is 33.3 µM.

And the TGI (RPMI-8226 leukemia)?
The TGI was 49.1 µM.

And the TGI (RXF 393 renal)?
The TGI was 29.2 µM.

What about the TGI (RXF-631 renal) of the same compound?
The TGI was 57 µM.

What about the TGI (SF-268 CNS) of the same compound?
Its TGI is 32.1 µM.

And the TGI (SF-295 CNS)?
Its TGI is 27 µM.

And the TGI (SF-539 CNS)?
The TGI was 36.3 µM.

What about the TGI (SK-MEL-2 melanoma) of the same compound?
The TGI was 30.9 µM.

What about the TGI (SK-MEL-28 melanoma) of the same compound?
Its TGI is 33.1 µM.

And the TGI (SK-MEL-5 melanoma)?
Its TGI is 32.5 µM.

What about the TGI (SK-OV-3 ovarian) of the same compound?
Its TGI is 33.7 µM.

What about the TGI (SN12C renal) of the same compound?
Its TGI is 39.6 µM.

And the TGI (SNB-19 CNS)?
Its TGI is 28.2 µM.

And the TGI (SNB-75 CNS)?
Its TGI is 35.3 µM.

What about the TGI (SNB-78 CNS) of the same compound?
Its TGI is 44.1 µM.

What about the TGI (SR leukemia) of the same compound?
Its TGI is 25.9 µM.

What about the TGI (SW-620 colon) of the same compound?
The TGI was 34.5 µM.

And the TGI (TK-10 renal)?
Its TGI is 37.1 µM.

And the TGI (U251 CNS)?
The TGI was 30.5 µM.

And the TGI (UACC-257 melanoma)?
The TGI was 38 µM.

What about the TGI (UACC-62 melanoma) of the same compound?
Its TGI is 28.9 µM.

And the TGI (UO-31 renal)?
Its TGI is 29.8 µM.

— PubChem BioAssay (NCI)
